This note sets out measurements from patent US20030139442A1, “Vasoactive agents” (priority 2002, published 2003).

For this experiment, the target named is T1, human GPR14 (Homo sapiens, UniProt Q9UKP6).
T1 construct: expressed in transfected cells
T1 sequence (Q9UKP6 1-389): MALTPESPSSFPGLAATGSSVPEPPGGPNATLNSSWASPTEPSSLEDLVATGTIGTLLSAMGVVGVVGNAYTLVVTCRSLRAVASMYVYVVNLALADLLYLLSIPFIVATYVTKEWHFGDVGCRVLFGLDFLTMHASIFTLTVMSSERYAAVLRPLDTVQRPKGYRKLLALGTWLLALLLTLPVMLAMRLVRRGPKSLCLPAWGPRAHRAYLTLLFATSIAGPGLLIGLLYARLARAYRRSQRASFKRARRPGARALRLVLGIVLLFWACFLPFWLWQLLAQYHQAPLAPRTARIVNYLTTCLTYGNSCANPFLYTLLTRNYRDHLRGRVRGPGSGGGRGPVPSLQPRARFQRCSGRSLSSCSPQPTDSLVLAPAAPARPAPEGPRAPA
Nature of the experiment: Inhibition of binding of [125I]-labeled human urotensin II to GPR14 using human GPR14-expressing CHO cell fraction. The following applies: 1 nM [125I]-labeled human urotensin II; human GPR14-expressing CHO cell membrane fraction; 25° C., 3 hours; read-out: Inhibitory concentration (concentration showing 50% inhibition of human GPR14 binding activity). The protocol: To 1×10^8 CHO/GPR14 cells were added 10 ml of homogenate buffer (10 mM NaHCO3, 5 mM EDTA, 0.5 mM PMSF, 1 μg/ml pepstatin, 4 μg/ml E64, 20μg/ml leupeptin), and disrupted using Polytron (12,000 rpm, 1 minute). Cell debris solution was centrifuged at 1,000 g for 15 minutes to obtain a supernatant. The supernatant was then […] (in Beckman type 30 rotor, 30,000 rpm, 1 hour), and the resultant precipitant was collected as human GPR14-expressing CHO cell fraction.
Isotope-labeled human urotensin II to be used in experiments for testing inhibition of binding was prepared as described below. 5 μg of human urotensin II (available from Peptide Institute, Inc.) was dissolved in 25 μl of 0.4M sodium acetate (pH 5.6). […]
Human GPR14-expressing CHO cell fraction was diluted in a membrane diluting buffer (20 mM phosphate buffer (pH7.3), 150 mM NaCl, 5 mM MgCl2, 0.1% BSA, 0.05% CHAPS, 0.5 mM PMSF, 0.1 μg/ml Pepstatin, 20 μg/ml Leupeptin, 4 μg/ml E-64) to prepare a solution of cell membrane fraction (protein concentration:3 μg/ml) for assay. […] Next, the filter was washed three times with membrane diluting buffer (0.2 ml), added with 20 μl of Microscinti 20 (Packard), and determined for radioactivity in Topcount (Packard). Specific-binding is calculated by subtracting non-specific binding from the total binding. […]

For `Nc1c2c(nc3ccc(-c4ccsc4)cc13)N(Cc1ccccc1)CC2` [compound 3], the IC50 is 33 nM.
